Data set [1] concerns the target T1, DddW (Ruegeria pomeroyi, UniProt Q5LW89, H83A).
T1 construct: E. coli BL21Star DE3 pLysS; EDTA-treated apo enzyme loaded with metal; homodimer; cloning primers encode MTAMLDSF at the N-terminus and RFTASA at the C-terminus
Kind of data set: HPLC of acrylate product at […] nm, […] min end point. To be noted: 2 uM enzyme, 2 uM Fe(II), 10 mM DMSP, anaerobic. Format: biochemical.

Data set [2] addresses T2, DddW (Ruegeria pomeroyi, UniProt Q5LW89, E87A).
T2 construct: E. coli BL21Star DE3 pLysS; EDTA-treated apo enzyme loaded with metal; homodimer; cloning primers encode MTAMLDSF at the N-terminus and RFTASA at the C-terminus
Kind of data set: HPLC of acrylate product at […] nm, […] min end point. It counts as biochemical. To be noted: 2 uM enzyme, 2 uM Fe(II), 10 mM DMSP, anaerobic.

Data set [3] addresses T3, DddW (Ruegeria pomeroyi, UniProt Q5LW89, H121A).
T3 construct: E. coli BL21Star DE3 pLysS; EDTA-treated apo enzyme loaded with metal; homodimer; cloning primers encode MTAMLDSF at the N-terminus and RFTASA at the C-terminus
Kind of data set: HPLC of acrylate product at […] nm, […] min end point. It counts as biochemical. To be noted: 2 uM enzyme, 2 uM Fe(II), 10 mM DMSP, anaerobic.

Data set [4] has as its target T4, DddW (Ruegeria pomeroyi, UniProt Q5LW89, H81A).
T4 construct: E. coli BL21Star DE3 pLysS; EDTA-treated apo enzyme loaded with metal; homodimer; cloning primers encode MTAMLDSF at the N-terminus and RFTASA at the C-terminus
Description: HPLC of acrylate product at […] nm, […] min end point. Format: biochemical. To be noted: 2 uM enzyme, 2 uM Fe(II), 10 mM DMSP, anaerobic.

Substrate in the data set “purified protein”: C[S+](C)CCC(=O)[O-]
Kind of data set: purified protein. Format: biochemical, Ruegeria pomeroyi. As to conditions: 2 uM apo-DddW with 2 uM Fe(II), pH 8.0, 50 mM HEPES, 20 mM NaCl, room temperature, anaerobic, DMSP 0.5-35 mM.

Data set [5] concerns the molecule itself. Description: SEC; as-isolated apo-DddW (19 mg/mL) on Superdex 200 16/600 in storage buffer (50 mM HEPES pH 7.5, 100 mM NaCl, 10% glycerol), 0.6 mL/min; mass by comparison with standards.

T1 sequence (Q5LW89 whole entry H83A): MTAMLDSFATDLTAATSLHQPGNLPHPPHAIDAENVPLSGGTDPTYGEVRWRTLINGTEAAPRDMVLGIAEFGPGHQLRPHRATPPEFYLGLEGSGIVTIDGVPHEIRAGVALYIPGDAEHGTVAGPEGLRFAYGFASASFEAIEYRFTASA
T4 sequence (Q5LW89 whole entry H81A): as the sequence (Q5LW89 whole entry H83A) above, with H81A, A83H counted along it
T2 sequence (Q5LW89 whole entry E87A): as the sequence (Q5LW89 whole entry H83A) above, with A83H, E87A counted along it
T3 sequence (Q5LW89 whole entry H121A): as the sequence (Q5LW89 whole entry H83A) above, with A83H, H121A counted along it

`C[S+](C)CCC(=O)[O-]` [DMSP]: the “no acrylate product formed” value at DddW [1], at DddW [2], on DddW [3] and on DddW [4] was “none of the DddW mutants formed the acrylate product compared to the wild-type enzyme” each time.

B1: Ruegeria pomeroyi DSS-3 DddW (DMSP lyase), N-terminally His-tagged, apo form (enzyme, UniProt Q5LW89 1-152, looked up)
chain: MTAMLDSFATDLTAATSLHQPGNLPHPPHAIDAENVPLSGGTDPTYGEVRWRTLINGTEAAPRDMVLGIAEFGPGHQLRPHRHTPPEFYLGLEGSGIVTIDGVPHEIRAGVALYIPGDAEHGTVAGPEGLRFAYGFASASFEAIEYRFTASA
notes: DddW, DMSP lyase of Ruegeria pomeroyi DSS-3 (locus SPO0453), 16.9 kDa without tag; No removal of the His10 tag is described; also called apo-DddW; SPO0453; source: E. coli BL21Star DE3 pLysS, purified (Ni-NTA), dialysed against EDTA to give apo-DddW
B1: in the data set “purified protein”, the Michaelis constant (Km) amounted to 8.68 ± 0.73 mM and the kcat was found to be 18.25 s⁻¹. In addition, the “stoichiometry N” value in data set [5] was determined as 2.

(Values after PMC4437653, “Biochemical, Kinetic, and Spectroscopic Characterization of Ruegeria pomeroyi DddW—A Mononuclear Iron-Dependent DMSP Lyase” (PLoS ONE, 2015).)
